According to patent US20090285773A1, “Hepatitis C Virus Inhibitors” (Bristol-Myers Squibb Company, priority 2008, published 2009):

Legend:
Type in all cases: biochemical
[1] = target: T1, human neutrophil elastase (HNE) (Homo sapiens, UniProt P08246); assay: Specificity assay, human neutrophil elastase; conditions: read-out: HLE activity in the specificity assays
T1 sequence (P08246 30-267): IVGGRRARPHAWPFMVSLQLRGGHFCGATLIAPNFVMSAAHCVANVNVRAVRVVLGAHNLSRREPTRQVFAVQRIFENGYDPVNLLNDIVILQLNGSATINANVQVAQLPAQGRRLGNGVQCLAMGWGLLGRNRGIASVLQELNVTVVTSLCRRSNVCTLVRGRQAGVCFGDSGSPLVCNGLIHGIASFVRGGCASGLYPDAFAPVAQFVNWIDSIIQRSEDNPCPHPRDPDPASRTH
Protocol: (§1) The specificities of compounds of the present disclosure were determined against a variety of serine proteases: human neutrophil elastase (HNE), porcine pancreatic elastase (PPE) and human pancreatic chymotrypsin and one cysteine protease: human liver cathepsin B. In all cases a 96-well plate format protocol using a fluorometric Amino-Methyl-Coumarin (AMC) substrate specific for each enzyme was used as described previously (PCT Patent Application No. WO 00/09543) with some modifications to the serine protease assays. All enzymes were purchased from Sigma, EMDbiosciences while the substrates were from Bachem, Sigma and EMDbiosciences.
(§2) Compound concentrations varied from 100 to 0.4 μM depending on their potency. The enzyme assays were each initiated by addition of substrate to enzyme-inhibitor pre-incubated for 10 min at room temperature and hydrolysis to 15% conversion as measured on cytofluor. […]
(§3) The percentage of inhibition was calculated using the formula: […]

[2] = target: porcine pancreatic elastase (PPE) (Sus scrofa, UniProt P00772); assay: Specificity assay, porcine pancreatic elastase; conditions: read-out: PPE activity in the specificity assays
Chain of porcine pancreatic elastase (PPE) (P00772 27-266): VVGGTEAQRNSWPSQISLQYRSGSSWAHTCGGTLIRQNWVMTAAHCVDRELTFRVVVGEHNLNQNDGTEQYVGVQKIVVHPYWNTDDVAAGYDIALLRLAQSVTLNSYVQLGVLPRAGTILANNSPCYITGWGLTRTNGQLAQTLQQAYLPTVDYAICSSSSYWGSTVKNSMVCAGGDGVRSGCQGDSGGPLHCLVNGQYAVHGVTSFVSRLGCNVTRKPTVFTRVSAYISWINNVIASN
Protocol: as §1, §2, §3

[3] = test system: human pancreatic chymotrypsin; assay: Specificity assay, chymotrypsin; conditions: read-out: Chymotrypsin activity in the specificity assays
Protocol: as §1, §2, §3

NS3/4A protease complex = target: T2, NS3/4A protease complex (UniProt P27958); assay: HCV NS3/4A protease complex enzyme assay (strain not stated); conditions: Table 2; strain and unit inferred
T2 construct: fused on or other part: three-lysine solubilising tail at the C-terminus of NS4A; probably a His tag from pET21b (Ni-NTA purification)
T2 sequence (P27958 1027-1657, one chain of several): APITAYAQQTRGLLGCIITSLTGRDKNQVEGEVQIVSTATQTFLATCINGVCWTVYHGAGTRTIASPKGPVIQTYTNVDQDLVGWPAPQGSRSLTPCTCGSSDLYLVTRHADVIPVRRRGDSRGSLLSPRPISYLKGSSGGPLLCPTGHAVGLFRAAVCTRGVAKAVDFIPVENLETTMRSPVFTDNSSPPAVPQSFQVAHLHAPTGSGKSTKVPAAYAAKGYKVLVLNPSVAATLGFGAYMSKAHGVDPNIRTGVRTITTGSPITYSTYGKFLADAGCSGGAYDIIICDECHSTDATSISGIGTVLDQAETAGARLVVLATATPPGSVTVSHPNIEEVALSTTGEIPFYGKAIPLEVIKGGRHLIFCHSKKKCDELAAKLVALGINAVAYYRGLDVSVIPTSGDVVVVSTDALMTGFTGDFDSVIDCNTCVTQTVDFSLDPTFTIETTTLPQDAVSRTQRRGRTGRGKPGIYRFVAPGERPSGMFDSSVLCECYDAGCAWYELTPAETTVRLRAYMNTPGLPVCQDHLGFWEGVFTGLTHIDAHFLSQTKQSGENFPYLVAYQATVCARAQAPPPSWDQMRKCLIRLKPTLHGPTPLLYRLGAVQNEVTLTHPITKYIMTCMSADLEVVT
Description: The purpose of this in vitro assay was to measure the inhibition of HCV NS3 protease complexes, derived from the BMS strain, H77 strain or J4L6S strain, as described above, by compounds of the present disclosure. This assay provides an indication of how effective compounds of the present disclosure would be in inhibiting HCV NS3 proteolytic activity.
In order to monitor HCV NS3/4A protease activity, an NS3/4A peptide substrate was used. The substrate was RET S1 (Resonance Energy Transfer Depsipeptide Substrate; AnaSpec, Inc. cat #22991)(FRET peptide), described by Taliani et al. in Anal. Biochem. 240(2):60-67 (1996). The sequence of this peptide is loosely based on the NS4A/NS4B natural cleavage site for the HCV NS3 protease except there is an ester linkage rather than an amide bond at the cleavage site. The peptide also contains a fluorescence donor, EDANS, near one end of the peptide and an acceptor, DABCYL, near the other end. The fluorescence of the peptide is quenched by […] resonance energy transfer (RET) between the donor and the acceptor, but as the NS3 protease cleaves the peptide the products are released from RET quenching and the fluorescence of the donor becomes apparent.
The peptide substrate was incubated with one of the three recombinant NS3/4A protease complexes, in the absence or presence of a compound of the present disclosure. The inhibitory effects of a compound were determined by monitoring the formation of fluorescent reaction product in real time using a Cytofluor Series 4000.
Assay buffer: 50 mM HEPES, pH 7.5; 0.15 M NaCl; 0.1% Triton; 15% Glycerol; 10 mM βME. Substrate: 2 μM final concentration (from a 2 mM stock solution in DMSO stored at −20° C.). HCV NS3/4A protease type 1a (1b), 2-3 nM final concentration (from a 5 μM stock solution in 25 mM HEPES, pH 7.5, 20% glycerol, 300 mM NaCl, 0.2% Triton-X100, 10 mM βME). For compounds with potencies approaching the assay limit, the assay was made more sensitive by adding 50 μg/ml Bovine Serum Albumin (Sigma) to the assay buffer and reducing the end protease concentration to 300 pM.
The assay was performed in a 96-well polystyrene black plate from Falcon. Each well contained 25 μl NS3/4A protease complex in assay buffer, 50 μl of a compound of the present disclosure in 10% DMSO/assay buffer and 25 μl substrate in assay buffer. A control (no compound) was also prepared on the same assay plate. The enzyme complex was mixed with compound or control solution for 1 min before initiating the enzymatic reaction by the addition of substrate. The assay plate was read immediately using the Cytofluor Series 4000 (Perspective Biosystems). The instrument was set to read an emission of […] at 25° C. Reactions were generally followed for approximately 15 min.
The percent inhibition was calculated with the following equation: […]
where δF is the change in fluorescence over the linear range of the curve. A non-linear curve fit was applied to the inhibition-concentration data, and the 50% effective concentration (IC50) was calculated by the use of Excel XLfit software using the equation, y=A+((B−A)/(1+((C/x)̂D))).

SMILES: COc1ccc2c(O[C@@H]3C[C@H]4C(=O)N[C@]5(C(=O)NS(=O)(=O)C6CC6)C[C@H]5/C=C\CCCCC[C@H](Nc5ccc(OC)nc5)C(=O)N4C3)nccc2c1 (single isomer, unassigned) [Compound 1]
- IC50 [1]: 1500 nM
- IC50 [2]: > 25000 nM
- IC50 [3]: 25000 nM
- IC50 (NS3/4A protease complex): 7 nM
